Measured values published in US8173689B2 (Novartis AG, priority 2006, dated 2012).
Read-outs that look alike come from different tables or passages of the source.

What was measured:
[1] = system: MNFS60 (murine AML cells); experiment: Cell viability assay in MCSF dependent MNFS60 cells (Cell Titer Glo); assay type: cell-based; settings: Mus musculus, tested at about 1 μM, read-out: M-NFS-60 CP percent inhibition
Procedure, shortened: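 Compounds were serially diluted 3-fold in DMSO to 500× final and added to cells with MCSF at 10 ng/ml final. After 72 hrs at 37° C. under 5% CO2, viable cells were quantified by CellTiter-Glo luminescence; triplicate wells gave EC50 values by curve fitting.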

[2] = molecular target: T1, full-length human CSF-1R receptor (Homo sapiens, UniProt P07333); experiment: In vitro inhibition of CSF-1R receptor tyrosine phosphorylation in transfected HEK293H cells stimulated with MCSF; assay type: cell-based; settings: HEK293-H, tested at about 1 μM, read-out: pCSF1R percent inhibition
T1 construct: transfected with the full-length human CSF-1R receptor cloned in house; expressed in transfected cells; host or cells: HEK293H (Invitrogen Cat. #11631017)
T1 sequence (P07333 20-972): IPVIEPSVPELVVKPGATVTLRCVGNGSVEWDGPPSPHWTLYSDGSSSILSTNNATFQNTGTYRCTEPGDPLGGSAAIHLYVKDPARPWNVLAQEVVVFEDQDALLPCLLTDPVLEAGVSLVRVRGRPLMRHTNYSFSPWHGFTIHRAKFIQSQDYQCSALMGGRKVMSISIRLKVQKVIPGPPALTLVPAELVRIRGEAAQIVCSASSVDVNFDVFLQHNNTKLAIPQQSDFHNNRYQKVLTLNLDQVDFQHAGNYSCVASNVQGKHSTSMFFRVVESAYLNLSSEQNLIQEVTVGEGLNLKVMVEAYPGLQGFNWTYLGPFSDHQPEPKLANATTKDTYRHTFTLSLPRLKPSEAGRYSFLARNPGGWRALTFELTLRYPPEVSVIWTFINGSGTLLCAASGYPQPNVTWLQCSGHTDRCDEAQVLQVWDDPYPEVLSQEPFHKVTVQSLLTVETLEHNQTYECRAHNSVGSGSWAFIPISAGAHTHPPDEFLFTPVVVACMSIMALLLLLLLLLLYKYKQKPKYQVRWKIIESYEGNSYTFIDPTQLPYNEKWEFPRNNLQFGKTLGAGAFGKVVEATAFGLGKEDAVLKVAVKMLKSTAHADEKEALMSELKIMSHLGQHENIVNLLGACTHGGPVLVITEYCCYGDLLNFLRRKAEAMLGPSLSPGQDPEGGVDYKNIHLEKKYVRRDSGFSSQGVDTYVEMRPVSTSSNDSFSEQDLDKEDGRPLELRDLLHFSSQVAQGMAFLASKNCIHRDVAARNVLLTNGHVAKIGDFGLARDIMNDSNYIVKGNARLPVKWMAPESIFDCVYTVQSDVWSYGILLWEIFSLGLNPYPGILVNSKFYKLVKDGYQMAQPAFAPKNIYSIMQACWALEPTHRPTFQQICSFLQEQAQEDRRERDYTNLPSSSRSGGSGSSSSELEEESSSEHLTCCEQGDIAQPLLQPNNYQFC
Method: The lysate was then transferred to total CSF-1R antibody coated 96-well plates that had already been blocked with 3% Blocker A from Mesoscale discovery (MSD) for 2 hours and washed afterwards. Lysates were incubated overnight at 4° C. and the plates were then washed 4× with MSD Tris Wash Buffer. […] The plates were read on the Sector 6000 instrument (MSD). Raw data was imported in Abase and EC50s calculated with XL-fit data analysis software.

kinase domain of cKIT = molecular target: T2, kinase domain of cKIT (Homo sapiens, UniProt P10721); experiment: Inhibition of cKIT kinase signaling in an in vitro biochemical assay (alphascreen); settings: tested at about 1 μM; for inhibition at 1 µM: read-out: cKit percent inhibition
T2 construct: The kinase domain of cKIT was assayed in 50 mM Hepes; purchased Upstate 14-559
T2 sequence (P10721 589-937 limits assumed): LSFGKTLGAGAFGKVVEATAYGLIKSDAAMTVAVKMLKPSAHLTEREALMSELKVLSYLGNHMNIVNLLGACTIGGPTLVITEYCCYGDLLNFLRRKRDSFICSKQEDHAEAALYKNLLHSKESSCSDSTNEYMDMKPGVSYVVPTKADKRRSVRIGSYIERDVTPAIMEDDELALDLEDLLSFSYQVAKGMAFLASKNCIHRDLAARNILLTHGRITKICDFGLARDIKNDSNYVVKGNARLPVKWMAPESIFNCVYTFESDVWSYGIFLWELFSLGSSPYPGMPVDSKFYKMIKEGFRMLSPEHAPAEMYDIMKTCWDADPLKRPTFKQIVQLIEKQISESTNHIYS

[3] = molecular target: T3, cytoplasmic domain of the human CSF-1R (Homo sapiens, UniProt P07333); experiment: In vitro kinase assay for colony stimulating factor-1 receptor (AlphaScreen); assay type: biochemical; settings: tested at about 1 μM, read-out: CSF-1R percent inhibition
T3 construct: Recombinant protein corresponding to the cytoplasmic domain of the human CSF-1R; purchased Invitrogen Corporation, Carlsbad, Calif; PV3249
T3 sequence (P07333 539-972 limits assumed): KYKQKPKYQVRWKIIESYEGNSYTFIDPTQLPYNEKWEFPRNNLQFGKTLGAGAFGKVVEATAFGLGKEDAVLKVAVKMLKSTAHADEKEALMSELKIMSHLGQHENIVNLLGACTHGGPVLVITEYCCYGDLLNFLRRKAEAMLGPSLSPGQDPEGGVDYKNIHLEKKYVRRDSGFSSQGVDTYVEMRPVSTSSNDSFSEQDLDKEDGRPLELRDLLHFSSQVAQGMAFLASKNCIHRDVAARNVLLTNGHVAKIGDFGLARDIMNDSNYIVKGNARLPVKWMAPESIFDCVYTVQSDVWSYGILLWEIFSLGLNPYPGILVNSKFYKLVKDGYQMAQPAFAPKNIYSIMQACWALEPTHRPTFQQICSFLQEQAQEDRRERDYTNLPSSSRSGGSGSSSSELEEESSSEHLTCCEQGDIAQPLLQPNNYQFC
Procedure, shortened: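 4 nM enzyme, 1 μM ATP; buffer 50 mM Hepes pH 7.5, 5 mM MgCl2, 10 mM MnCl2, 1.0 mM DTT, 0.1% BSA, 0.01% Tween 80. Readout: AlphaScreen, PT66 acceptor/streptavidin donor, overnight.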

kinase domain of PDGFRβ = molecular target: T4, kinase domain of PDGFRβ (Homo sapiens, UniProt P09619); experiment: Inhibition of PDGFRb kinase signaling in an in vitro biochemical assay (alphascreen); settings: tested at about 1 μM; for inhibition at 1 µM: read-out: PDGFRβ percent inhibition
T4 construct: The kinase domain of PDGFRβ was assayed in 50 mM Hepes; purchased Invitrogen P3082
T4 sequence (P09619 600-962 limits assumed): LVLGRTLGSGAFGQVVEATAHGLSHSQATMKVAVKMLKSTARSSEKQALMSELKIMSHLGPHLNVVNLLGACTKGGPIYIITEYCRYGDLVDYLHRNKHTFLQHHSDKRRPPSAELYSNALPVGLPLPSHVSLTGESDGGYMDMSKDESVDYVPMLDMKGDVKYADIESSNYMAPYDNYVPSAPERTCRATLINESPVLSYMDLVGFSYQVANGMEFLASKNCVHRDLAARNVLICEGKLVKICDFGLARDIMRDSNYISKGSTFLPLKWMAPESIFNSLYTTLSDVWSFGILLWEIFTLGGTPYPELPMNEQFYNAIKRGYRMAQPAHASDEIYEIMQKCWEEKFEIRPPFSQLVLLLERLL

## CNC(=O)c1cc(Oc2ccc3nc(N[C@@H]4CCCC[C@H]4O)sc3c2)ccn1 [Compound 157, 4-[2-((1R,2R)-2-Hydroxy-cyclohexylamino)-benzothiazol-6-yloxy]-pyridine-2-carboxylic acid methylamide]
[1]; MNFS60 cells
  inhibition at 1 µM: 100%
[2]; HEK293H cells
  inhibition at 1 µM: 99%
Kinase domain of cKIT
  cKit percent inhibition: 20%
[3]
  inhibition at 1 µM: 100%
Kinase domain of PDGFRβ
  PDGFRβ percent inhibition: 20%

## CC(C)CONC(=O)c1cc(Oc2ccc3nc(NCC4CCCCC4)sc3c2)ccn1 [Example 380, 4-(2-(cyclohexylmethylamino)benzo[d]thiazol-6-yloxy)-N-isobutoxypicolinamide]
[1]; MCSF dependent MNFS60 cells
  inhibition at 1 µM: 79%
[2]; HEK293H cells
  inhibition at 1 µM: 94%
Kinase domain of cKIT
  inhibition at 1 µM: 53%
[3]
  inhibition at 1 µM: 100%
Kinase domain of PDGFRβ
  inhibition at 1 µM: 49%

## CNC(=O)c1cc(Oc2ccc3nc(N[C@H]4CCCC[C@@H]4OCc4ccccc4)sc3c2)ccn1 [Compound 156, 4-[2-((1S,2S)-2-Benzyloxy-cyclohexylamino)-benzothiazol-6-yloxy]-pyridine-2-carboxylic acid methylamide]
[1]; MNFS60 cells
  inhibition at 1 µM: 63%
[2]; HEK293H cells
  inhibition at 1 µM: 16%
Kinase domain of cKIT
  inhibition at 1 µM: 27%
[3]
  inhibition at 1 µM: 100%
Kinase domain of PDGFRβ
  inhibition at 1 µM: 41%

## O[C@@H]1CCCC[C@H]1Nc1nc2ccc(Oc3ccnc4c(F)cccc34)cc2s1 [Example 263, (1R,2R)-2-(6-(8-fluoroquinolin-4-yloxy)benzo[d]thiazol-2-ylamino)cyclohexanol]
[1]; compounds of Table 3
  inhibition at 1 µM: 22%
[2]; compounds of Table 3
  inhibition at 1 µM: 24%
Kinase domain of cKIT; compounds of Table 3
  inhibition at 1 µM: 12%
[3]; compounds of Table 3
  inhibition at 1 µM: 99%
Kinase domain of PDGFRβ; compounds of Table 3
  inhibition at 1 µM: 0%

## CNC(=O)c1cc(Oc2ccc3nc(NC4CCCC(C)C4)sc3c2)ccn1 (centres unmarked) [Compound 136, 4-[2-(3-Methyl-cyclohexyl-amino)-benzothiazol-6-yloxy]-pyridine-2-carboxylic acid methylamide]
[1]; MNFS60 cells
  inhibition at 1 µM: 100%
[2]; HEK293H cells
  inhibition at 1 µM: 97%
Kinase domain of cKIT
  inhibition at 1 µM: 88%
[3]
  inhibition at 1 µM: 100%
Kinase domain of PDGFRβ
  inhibition at 1 µM: 84%

## CNC(=O)c1cc(Oc2ccc3nc(N[C@@H]4CCCC[C@H]4CO)sc3c2)ccn1 [Example 299, 4-(2-((1R,2R)-2-(hydroxymethyl)cyclohexyl-amino)benzo[d]thiazol-6-yloxy)-N-methylpicolinamide]
[1]; compounds of Table 3
  inhibition at 1 µM: 94%
[2]; compounds of Table 3
  inhibition at 1 µM: 95%
Kinase domain of cKIT; compounds of Table 3
  inhibition at 1 µM: 32%
[3]; compounds of Table 3
  inhibition at 1 µM: 100%
Kinase domain of PDGFRβ; compounds of Table 3
  inhibition at 1 µM: 57%

## CNC(=O)c1cc(Oc2ccc3nc(NCc4ccccc4-n4cccn4)oc3c2)ccn1 [Compound 105, 4-[2-(2-Pyrazol-1-yl-benzyl-amino)-benzooxazol-6-yloxy]-pyridine-2-carboxylic acid methylamide]
[1]; MNFS60 cells
  inhibition at 1 µM: 49%
[2]; HEK293H cells
  inhibition at 1 µM: 70%
Kinase domain of cKIT
  inhibition at 1 µM: 22%
[3]
  inhibition at 1 µM: 99%
Kinase domain of PDGFRβ
  inhibition at 1 µM: 8%

## C[C@H](Nc1nc2ccc(Oc3ccnc(-c4cccnc4)c3)cc2s1)C1CCCCC1 [Example 274, (S)-6-(2,3'-bipyridin-4-yloxy)-N-(1-cyclohexylethyl)benzo[d] thiazol-2-amine]
[1]; compounds of Table 3
  inhibition at 1 µM: 76%
[2]; compounds of Table 3
  inhibition at 1 µM: 82%
Kinase domain of cKIT; compounds of Table 3
  inhibition at 1 µM: 28%
[3]; compounds of Table 3
  inhibition at 1 µM: 100%
Kinase domain of PDGFRβ; compounds of Table 3
  inhibition at 1 µM: 12%

## CN(C)c1ncc(-c2cc(Oc3ccc4nc(N[C@@H]5CCCC[C@H]5O)sc4c3)ccn2)cn1 [Example 286, (1R,2R)-2-(6-(2-(2-(dimethylamino)pyrimidin-5-yl)pyridin-4-yloxy)benzo[d]thiazol-2-ylamino)cyclohexanol]
[1]; compounds of Table 3
  inhibition at 1 µM: 71%
[2]; compounds of Table 3
  inhibition at 1 µM: 94%
Kinase domain of cKIT; compounds of Table 3
  inhibition at 1 µM: 23%
[3]; compounds of Table 3
  inhibition at 1 µM: 100%
Kinase domain of PDGFRβ; compounds of Table 3
  inhibition at 1 µM: 0%

## CC(C)C[C@H](CO)Nc1nc2ccc(Oc3ccnc4ccccc34)cc2s1 [Example 245, (R)-4-methyl-2-(6-(quinolin-4-yloxy)benzo[d]thiazol-2-ylamino)pentan-1-ol]
[1]; compounds of Table 3
  inhibition at 1 µM: 53%
[2]; compounds of Table 3
  inhibition at 1 µM: 81%
Kinase domain of cKIT; compounds of Table 3
  inhibition at 1 µM: 16%
[3]; compounds of Table 3
  inhibition at 1 µM: 100%
Kinase domain of PDGFRβ; compounds of Table 3
  inhibition at 1 µM: 21%

## CNC(=O)c1cc(Oc2ccc3nc(NCC4CCCN(S(C)(=O)=O)C4)sc3c2)ccn1 (centres unmarked) [Example 308, N-methyl-4-(2-((1-(methylsulfonyl)piperidin-3-yl)methylamino)benzo[d]thiazol-6-yloxy)picolinamide]
[1]; MCSF dependent MNFS60 cells
  inhibition at 1 µM: 54%
[2]; HEK293H cells
  inhibition at 1 µM: 81%
Kinase domain of cKIT
  inhibition at 1 µM: 51%
[3]
  inhibition at 1 µM: 100%
Kinase domain of PDGFRβ
  inhibition at 1 µM: 27%

## CNC(=O)c1cc(Oc2ccc3nc(NC4CCCCC4)sc3c2)ccn1 [Compound 135, 4-(2-Cyclohexylamino-benzothiazol-6-yloxy)-pyridine-2-carboxylic acid methylamide]
[1]; MNFS60 cells
  inhibition at 1 µM: 96%
[2]; HEK293H cells
  inhibition at 1 µM: 91%
Kinase domain of cKIT
  inhibition at 1 µM: 68%
[3]
  inhibition at 1 µM: 100%
Kinase domain of PDGFRβ
  inhibition at 1 µM: 20%

## CC(C)CCNc1nc2ccc(Oc3ccnc(-c4cnn(C)c4)c3)cc2s1 [Example 365, N-isopentyl-6-(2-(1-methyl-1H-pyrazol-4-yl)pyridin-4-yloxy)benzo[d]thiazol-2-amine]
[1]; MCSF dependent MNFS60 cells
  inhibition at 1 µM: 100%
[2]; HEK293H cells
  inhibition at 1 µM: 97%
Kinase domain of cKIT
  inhibition at 1 µM: 100%
[3]
  inhibition at 1 µM: 100%
Kinase domain of PDGFRβ
  inhibition at 1 µM: 79%

## CCCc1nc(-c2cc(Oc3ccc4nc(N[C@@H]5CCCC[C@H]5O)sc4c3)ccn2)[nH]c1C [Example 267, (1R,2R)-2-(6-(2-(5-methyl-4-propyl-1H-imidazol-2-yl)pyridin-4-yloxy)benzo[d]thiazol-2-ylamino)cyclohexanol]
[1]; compounds of Table 3
  inhibition at 1 µM: 100%
[2]; compounds of Table 3
  inhibition at 1 µM: 96%
Kinase domain of cKIT; compounds of Table 3
  inhibition at 1 µM: 16%
[3]; compounds of Table 3
  inhibition at 1 µM: 100%
Kinase domain of PDGFRβ; compounds of Table 3
  inhibition at 1 µM: 26%

## COCCn1cc(-c2cc(Oc3ccc4nc(N[C@@H]5c6ccccc6C[C@@H]5O)sc4c3)ccn2)cn1 [Compound 58]
[1]; compounds of Table 4
  inhibition at 1 µM: 100%
[2]; compounds of Table 4
  inhibition at 1 µM: 95%
Kinase domain of cKIT; compounds of Table 4
  inhibition at 1 µM: 11%
[3]; compounds of Table 4
  inhibition at 1 µM: 100%
Kinase domain of PDGFRβ; compounds of Table 4
  inhibition at 1 µM: 0%

## O[C@@H]1CCCC[C@H]1Nc1nc2ccc(Oc3ccnc(-c4cccc(CN5CCOCC5)c4)c3)cc2s1 [Cmpd 166, (1R,2R)-2-(6-(2-(3-(morpholinomethyl)phenyl)pyridin-4-yloxy)benzo[d]thiazol-2-ylamino)cyclohexanol]
[1]; compounds of Table 3
  inhibition at 1 µM: 49%
[2]; compounds of Table 3
  inhibition at 1 µM: 78%
Kinase domain of cKIT; compounds of Table 3
  inhibition at 1 µM: 13%
[3]; compounds of Table 3
  inhibition at 1 µM: 100%
Kinase domain of PDGFRβ; compounds of Table 3
  inhibition at 1 µM: 0%

## CNC(=O)c1cc(Oc2ccc3nc(NC4CCCCNC4=O)sc3c2)ccn1 (centres unmarked) [Compound 93]
[1]; compounds of Table 3
  inhibition at 1 µM: 23%
[2]; compounds of Table 3
  inhibition at 1 µM: 47%
Kinase domain of cKIT; compounds of Table 3
  inhibition at 1 µM: 12%
[3]; compounds of Table 3
  inhibition at 1 µM: 100%
Kinase domain of PDGFRβ; compounds of Table 3
  inhibition at 1 µM: 0%

## CNC(=O)c1cc(Oc2ccc3nc(NCc4ccc(OC)c(OC)c4Cl)oc3c2)ccn1 [Compound 117, 4-[2-(2-Chloro-3,4-dimethoxy-benzylamino)-benzooxazol-6-yloxy]-pyridine-2-carboxylic acid methylamide]
[1]; MNFS60 cells
  inhibition at 1 µM: 61%
[2]; HEK293H cells
  inhibition at 1 µM: 88%
Kinase domain of cKIT
  inhibition at 1 µM: 96%
[3]
  inhibition at 1 µM: 100%
Kinase domain of PDGFRβ
  inhibition at 1 µM: 0%

## CNC(=O)c1cc(Oc2ccc3nc(NCc4ccc(=O)[nH]c4)sc3c2)ccn1 [Compound 89]
[1]; compounds of Table 3
  inhibition at 1 µM: 15%
[2]; compounds of Table 3
  inhibition at 1 µM: 65%
Kinase domain of cKIT; compounds of Table 3
  inhibition at 1 µM: 15%
[3]; compounds of Table 3
  inhibition at 1 µM: 100%
Kinase domain of PDGFRβ; compounds of Table 3
  inhibition at 1 µM: 2%
